Four molecules from patent US5157023A, “Antipyretic and anti-inflammatory lys pro val compositions and method of use” (priority 1991, dated 1992) can be followed below.

The test system of assay [1] is normal body temperature. Description: body temperature of afebrile rabbits. The format is in vivo. Here is the method: (§1) Experimental rabbits that were to be used in the antipyresis study were restrained in conventional holders and a thermistor probe (Yellow Springs International, No. 701) was inserted about 100 mm into the rectum and taped to the tail. In certain experiments, another thermistor probe (Yellow Springs International, No. 709) was attached to the dorsal surface of the ear. Temperature recordings were made every 10 minutes via a MINC 11 online computer connected to a digital temperature recorder (Datalogger, United Systems Corp.) At least 1 hour was allowed after the probes were inserted before injections were made, and all experiments were separated by at least 48 hours. Experiments were run in an environmental chamber at 23~C.
Injections of the tripeptide were given 30 minutes after the pyrogen, into the intraventricular cannula. […] Decreases in fever, calculated as percent reduction of the area under the control fever curve over the apparent duration of action of the peptide (1.5 hours), were 24%, 31%, and 48% for the 0.5, 1.0, and 2.0 milligram doses, respectively. Similarly, intravenous administration of 2, 20 and 200 milligrams of the tripeptide reduced fever 34, 27 and 67% , respectively, during the 1.5 hour period after injection of the leukocytic pyrogen. Control saline injections, centrally administered, caused no significant reduction in body temperature.

Assay [2] has as its system leukocytic pyrogen-induced fever. Description: in vivo rabbit pyresis assay (leukocytic pyrogen-induced fever). Set-up: species or system New Zealand white rabbits. As to conditions: for decrease in fever, percent reduction of the area under the control fever curve: intraventricular (central), 30 min after pyrogen, over 1.5 hours; for fever reduction: 1.5 hour period after injection of leukocytic pyrogen. The method, then: Leukocytic pyrogen is a molecule capable of producing transient fever in mammals which is produced by incubating rabbit leukocytes with Salmonella typhosa endotoxin. More specifically, to produce leukocytic pyrogen, donor rabbits were first sacrificed by decapitation. Blood was collected in a heparinized pryrogen-free beaker. Heparinized 50-ml glass centrifuge tubes were filled 3/4 full with whole blood, saline was added to fill each tube, and the solution was gently mixed. The tubes were then centrifuged at low speed for 20 min. The buffy coat was drawn off and placed in pyrogen-free flasks. Lactate Ringer's solution equal in volume to one-half that of the red cell layer, was added along with Salmonella typhosa endotoxin (Difco, No. 0901) also in Ringer's solution (1 ug/ml), to the buffy coat. The mixture was incubated at 38~C in a shaking water bath for 4 hours. The solution was centrifuged, filtered (Nalgene, 0.20 microns), and the leukocytic pyrogen-containing filtrate was stored at 4~C. Samples of leukocytic pyrogen were heated to 70~C for 2 hours and injected intravenously to test for endotoxin contamination.
Injections were 50 ul in volume and were followed by a 20 ul saline flush. Intravenous injections were made via the marginal ear vein. Intravenous leukocytic pyrogen injections were 0.07 ml of a stock solution made up of a mixture of leukocytic pyrogen derived from 4 donors. When injected, leukocytic pyrogen stock solution was diluted with nonpyrgenic isotonic saline. Injections were made with commercial nonpyrogenic syringes. Glassware was washed with chromic acid, rinsed with deionized water and heated to 200~C for a minimum of 2 hours to insure that it was pyrogen free.
Adult New Zealand white rabbits were used for the development of an antipyretic assay. The rabbits were housed individually in a 21-23~Cenvironment with a 12 hour light/dark cycle; food and water were available ad libitum. […]. Rabbits were placed in a Kopf rabbit stereotaxic instrument and a stainless steel cannula (No. 201, David Kopf Instruments)was inserted into a lateral ventricle at a point 1.0 mm anterior to the bregma and 2.7 mm lateral to the midline. The cannula was lowered until cerebrospinal fluid appeared inside the well of the cannula. Stainless steel screws and dental acrylic were used to anchor the cannula to the caluarium. Benzathine penicillin G (Bicillin, Wyeth Laboratories) was given post-operatively (150,000 units intramuscularly).
as §1
The average thermal response, the mean change in temperature (~C) over the duration of the response measured in hours, was calculated for each response and the paired t-test was used for statistical analysis of the data. The time period over which the experimental anti-pyretic temperature response was determined was generally set by the duration of the control response for the individual animal. The control response begins with the first deviation from baseline temperature and continues until the temperature returns to baseline or to the point nearest the baseline within 5 hours. The mean change in temperature for each 10 minute intervals during this time period are summed and divided by the total number of 10 minute periods. […]

The subject of assay [3] is carrageenan-induced swelling of rat paws. As to the kind of experiment: carrageenan/rat paw edema assay. The conditions noted are these: for overall reduction of carrageenan-induced swelling relative to hydrocortisone: approximately equal weights, intraperitoneal. The format is in vivo, male Sprague-Dawley rats. The method, then:
A second in vivo bioassay for anti-inflammatory activity was conducted in which the action of the tripeptide was compared to that of hydrocortisone. In this assay, the two agents were given at similar doses and tested for their independent ability to inhibit carrageenan-induced swelling of rats paws. This assay, the rat paw edema test, was conducted generally as it is typically performed in the art, for example, as described by Winter et al. (1962), Proc. Soc. Exp. Biol. Med., 111:544 or in U.S. Pat. No. 4,150,137.
Briefly, the assay was performed as follows. Each of twenty-four male Sprague-Dawley rats was assigned to one of four groups: tripeptide treatment and controls (matched according to body weight and initial paw volume), hydrocortisone treatment and matched controls. The volume of the right rear paw of the test and control animals was determined using standard procedures and a mercury displacement volumetric technique. An intraperitoneal injection of the tripeptide (Ac-Lys-Pro-Val-NH2, 100 mg/kg, N=6), of hydrocortisone (100 mg/kg, N=6), or saline (matched volume, N=12) was given to each rat. One hour later 0.5 ml of 1% lambda carrageenan in saline solution was injected into the right rear paw of the animals and the paw volume was again recorder (baseline measure). […] Thereafter paw volume was measured each hour for out hours. For comparison of the effects of the two treatments, paw volume of experimental animals measured at hourly intervals was expressed as a percentage of the volume change of their respective matched controls.

Assay [4] relates to histamine-mediated increase in capillary permeability. Description: skin-blueing test (Sparrow/Wilhelm assay), histamine-induced blue weals. The format is in vivo, New Zealand white rabbits. As to conditions: for relative intensity of histamine-induced blue weals, experimental (E) vs control (C): scored 30 minutes after histamine. From the text: This model relies on the principal that localized, subcutaneous injections of histamine will result in a localized increase in capillary permeability. When the test animal has been pretreated with blue dye intravenously, the localized histamine injections will elicit blue-colored "weals" around the injection site. Thus, by preadministration of an effective anti-inflammatory agent, the blue color of the histamine-induced weals will be much less pronounced, with the amount of color reduction being dependent on the relative amount and/or potency of the anti-inflammatory agent used.
Non-moulting New Zealand white rabbits were used for the sparrow/Wilhelm assay. The skin of the rabbits back was closely clipped 1-2 days previous to the experiment, but not dipilated, and the rabbits were kept warm until tested. Various amounts of the protected tripeptide (diacetyl-L-lys-l-Pro-L-Val-NH2) were injected intravenously into an ear vein approximately 15 minutes prior to intravenous injection of blue dye. Control rabbits received sham injections. Fifteen minutes following injection of the agent or sham, the rabbits received approximately 30 mg/kg of Pontamine blue dye as a 2.5% solution in 0.45% saline, into an exposed vein.
Immediately following dye injections, histamine was injected intradermally in a 0.10 ml volume (1.25 mg histamine 0.1 ml volume) at several sites on each side of the spine. In all, one vertical row of six injections were made on each side of the spine. The relative intensity of the resultant blue weals were scored by an independent observer 30 minutes after histamine injection.

Peptide text beside a SMILES is read from it.

On to `[Cl][Cu][Cl]` [copper ions, cupric chloride], for which the “effect of copper ions alone on normal temperature” value in assay [1] (doses used to enhance the protected peptide) is recorded as “no effect on normal temperature”.
As for `CC(C)[C@H](NC(=O)[C@@H]1CCCN1C(=O)[C@@H](N)CCCCN)C(=O)O` [L-Lys-L-Pro-L-val] (H-Lys-Pro-Val-OH), the “decrease in fever, percent reduction of the area under the control fever curve” value in assay [2] (0.5 milligram dose) is listed as 24%; in assay [2] (1.0 milligram dose), 31%; in assay [2] (2.0 milligram dose) it was 48%. In assay [2] (central administration), the “duration of (antipyretic) action” value is 1.5 h. Besides, the fever reduction in assay [2] (intravenous 2 milligrams) came to 34%; in assay [2] (intravenous 20 milligrams), 27%; in assay [2] (intravenous 200 milligrams) it was 67%. In assay [1] (injections of 200 milligrams), the “reduction in body temperature of afebrile rabbits” value was “no reduction in body temperature”.
In the case of “diacetyl-L-Lysyl-L-Prolyl-L-Valyl-NH2 [protected tripeptide]”, in assay [2] (0.5 mg, central administration), the “reduction of fever induced by intravenous leukocytic pyrogen” value is recorded as “more than 50%”. For the same molecule, the “antipyretic potency relative to the unprotected tripeptide” value in assay [2] (central administration) was “at least four”. In addition, the “duration of (antipyretic) action” value in assay [2] (central administration) was “at least four”. In assay [2] (rabbit pyresis assay, summary statement), the “activity relative to the unprotected species on a weight basis” value was “approximately twice”. Besides, in assay [3] (100 mg/kg intraperitoneal each, 1 h before carrageenan, hours after the first hour, p>0.20), the “inhibition of paw edema compared with hydrocortisone” value is given as “no significant difference”. Further, the “overall reduction of carrageenan-induced swelling relative to hydrocortisone” value in assay [3] (listed as diacetyl-Lys-Pro-Val-NH2) is listed as “roughly equivalent”; in assay [3] (listed as protected Lys-Pro-Val tripeptide), “commensurate with hydrocortisone”. Also, the “relative intensity of histamine-induced blue weals, experimental (E) vs control (C)” value in assay [4] (0.625 ug/kg body weight intravenously) is on record as “No difference”; in assay [4] (1.25 ug/kg body weight intravenously), “E lighter than C”; in assay [4] (5 ug/kg body weight intravenously), “E lighter than C”; in assay [4] (10 ug/kg body weight intravenously), “E lighter than C”. The “lowest intravenous dosage reducing histamine-mediated increase in capillary permeability” value in assay [4] (intravenous) stood at 1.25 ug/kg body weight. Further, in assay [4] (rabbit, in vivo), the “lowest dosage eliciting a demonstrable reduction in histamine-mediated vascular permeability to vital dyes” value was “about 1 microgram/kilogram”.
Consider `C[C@]12CCC(=O)C=C1CC[C@@H]1[C@@H]2[C@@H](O)C[C@@]2(C)[C@H]1CC[C@]2(O)C(=O)CO` [hydrocortisone, reference compound], for which the “inhibition of paw swelling in the first hour” value in assay [3] (100 mg/kg intraperitoneal, first hour after carrageenan, p<0.05 Mann-Whitney vs tripeptide) was “markedly inhibited swelling”.
